Assay results published in patent US20180282819A1, “Targeting the Histone Pathway to Detect and Overcome Anthracyclin Resistance” (ONTARIO INSTITUTE FOR CANCER RESEARCH (OICR), priority 2015, published 2018).
pIC50: −log10 of the molar value.

How the values were obtained:
Assay type in all cases: cell-based, human
[1] = test system: ZR75 Nat (native ZR-75-1 cells); assay: HDAC inhibitor cytotoxicity, CellTiter-Glo viability
Protocol: (§1) All inhibitors were provided by the Drug Discovery group at the Ontario Institute for Cancer Research (OICR, Toronto, Canada). Cells were seeded at 1000-1500 cells/well into 384-well plates (Greiner, Mississauga, Canada). […] After 72 h, the effects of inhibitors were determined using CellTiter-Glo Luminescent Cell Viability Assay (Promega, Madison, USA) and the Wallac EnVision 2104 Multilabel Reader (Perkin-Elmer, Woodbridge, Canada). Raw data were normalized to negative (media) and positive (20 μM staurosporine) controls and analyzed in GraphPad Prism5.

[2] = test system: ZR75 EpiR (epirubicin-resistant ZR-75-1 cells); assay: as above; details: 72 h, in the presence of selection dose of epirubicin (10 nM)
Protocol: as §1

[3] = test system: MCF7 EpiR (epirubicin-resistant MCF7 cells); assay: as above; details: for pIC50: 72 h, CellTiter-Glo, in the presence of selection dose of epirubicin (30 nM)
Protocol: as §1

[4] = test system: MCF7 Nat (native MCF7 cells); assay: as above
Protocol: as §1

[5] = test system: 231 EpiR (epirubicin-resistant MDA-MB-231 cells); assay: as above; details: for pIC50: 72 h, CellTiter-Glo, in the presence of selection dose of epirubicin (25 nM)
Protocol: as §1

[6] = test system: 231 Nat (native MDA-MB-231 cells); assay: as above
Protocol: as §1

[7] = test system: SKBR3 Nat (native SKBR3 cells); assay: as above
Protocol: as §1

[8] = test system: SKBR3 EpiR (epirubicin-resistant SKBR3 cells); assay: as above; details: for pIC50: 72 h, CellTiter-Glo, in the presence of selection dose of epirubicin (15 nM)
Protocol: as §1

[9] = test system: SKBR3 epirubicin-resistant cells; assay: Cross resistance, CCK-8 viability; details: SKBR3, 72 h
Protocol: (§2) Native and resistant cells were exposed to drug concentrations ranging from 0.3 nM to 3000 nM. Cell viability was determined 72 h later by CCK-8 assay. A) Percent of live cells relative to DMSO control was plotted against epirubicin concentration. Black=native cells, magenta=resistant cells. B) IC50 values in nM concentration±standard deviation. Resistance factor is shown in parenthesis and represents resistant IC50/native IC50.
(§3) Breast cancer cell lines (MDA-MB-231, MCF7, ZR-75-1, SKBR3) were purchased from ATCC and cultured in DMEM (except SKBR3, cultured in RPMI) supplemented with 10% heat-inactivated fetal bovine serum and 1% L-glutamine (Gibco, Burlington, Canada). Epirubicin-resistant cell lines were generated by exposing native cells to increasing concentrations of epirubicin with an initial concentration set at 0.5 nM. Resistance was defined when IC50 value superseded the IC50 value of the corresponding native cell line, and resistant cells could not tolerate further increase in drug concentration. Drug resistance and cross resistance were determined by exposing cells to drug concentrations ranging from 0.3-3000 nM for 72 h. Cell viability was determined by Cell Counting Kit-8 (CCK-8, Dojindo, Cedarlane, Burlington, Canada). IC50 were calculated in GraphPad Prism5.

[10] = test system: ZR-75-1 epirubicin-resistant cells; assay: Cross resistance, CCK-8 viability; details: ZR-75-1, 72 h
Protocol: as §2, §3

[11] = test system: MCF7 epirubicin-resistant cells; assay: Cross resistance, CCK-8 viability; details: MCF7, 72 h
Protocol: as §2, §3

[12] = test system: MDA-MB-231 epirubicin-resistant cells; assay: Cross resistance, CCK-8 viability; details: MDA-MB-231, 72 h
Protocol: as §2, §3

[13] = test system: all four epirubicin-resistant cell lines (MDA-MB-231, MCF7, SKBR3, ZR-75-1); assay: Drug resistance and cross resistance, CCK-8 viability; details: 72 h
Protocol: as §2, §3

Molecule | pIC50 [2] | pIC50 [3] | pIC50 [5] | pIC50 [8] | pIC50 ([1]; Homo sapiens, ZR75, 72 h) | pIC50 ([4]; Homo sapiens, MCF7, 72 h) | pIC50 ([6]; Homo sapiens, MDA-MB-231, 72 h) | pIC50 ([7]; Homo sapiens, SK-BR-3, 72 h) | other results
CCC(=O)CCCCC[C@@H]1NC(=O)[C@H]2CCCCN2C(=O)[C@H]([C@@H](C)CC)NC(=O)[C@H](Cc2cn(OC)c3ccccc23)NC1=O | 6.60 | 6.96 | 6.96 | 5.66 | – | – | – | – | pIC50 ([1]; 72 h): 6.68; pIC50 ([4]; 72 h): 7.15; pIC50 ([6]; 72 h): 6.64; pIC50 ([7]; 72 h): 6.77
CN(C)Cc1c(C(=O)NCCOc2ccc(C(=O)NO)cc2)oc2ccccc12 [Abexinostat] | 6.80 | 7.05 | 6.92 | 5.65 | 6.85 | 6.96 | 6.57 | 6.68 | –
O=C(/C=C/c1cccc(S(=O)(=O)Nc2ccccc2)c1)NO [Belinostat] | 6.34 | 6.70 | 6.74 | 6.82 | 6.44 | 6.60 | 6.30 | 6.68 | –
CC(C)(C)OC(=O)Nc1ccc(-c2cc(C(=O)NCCCCCCC(=O)NO)no2)cc1 [CAY10603] | 6.12 | 6.42 | 6.09 | 5.99 | – | – | – | – | pIC50 ([1]; 72 h): 6.01; cytotoxicity for epirubicin-resistant cells compared to native cell lines ([3]; MCF7, with epirubicin): more cytotoxic; pIC50 ([4]; 72 h): 6.21; pIC50 ([6]; 72 h): 5.90; pIC50 ([7]; 72 h): 6.36
O=C(/C=C/c1cccc(C(=O)NO)c1)NO [CBHA] | 5.65 | 5.45 | 5.76 | 5.99 | – | – | – | – | pIC50 ([1]; 72 h): 5.53; pIC50 ([4]; 72 h): 5.93; pIC50 ([6]; 72 h): 5.62; pIC50 ([7]; 72 h): 5.84
O=C(/C=C/c1ccc(CN(CCO)CCc2c[nH]c3ccccc23)cc1)NO [Dacinostat] | 7.70 | 8.00 | 7.70 | 7.22 | 7.70 | 7.70 | 7.40 | 7.70 | –
CCN(CC)Cc1ccc2cc(COC(=O)Nc3ccc(C(=O)NO)cc3)ccc2c1 [Givinostat] | 6.74 | 7.10 | 6.80 | 5.56 | 6.77 | 7.00 | 6.59 | 6.66 | –
Nc1ccccc1NC(=O)c1ccc(CNc2nccc(-c3cccnc3)n2)cc1 [Mocetinostat] | 6.37 | 6.39 | 6.37 | 5.43 | 6.46 | 6.49 | 6.07 | 6.00 | –
Cc1[nH]c2ccccc2c1CCNCc1ccc(/C=C/C(=O)NO)cc1 [Panobinostat] | 7.70 | 8.00 | 8.00 | 7.15 | 8.00 | 8.00 | 7.70 | 7.70 | –
CCCCc1nc2cc(/C=C/C(=O)NO)ccc2n1CCN(CC)CC [Pracinostat] | 6.64 | 6.92 | 6.74 | 6.04 | 6.82 | 6.80 | 6.27 | 6.59 | cytotoxicity for epirubicin-resistant cells compared to native cell lines ([5]; MDA-MB-231, with epirubicin): more cytotoxic
Cn1cc(CNCC2CCN(c3ncc(C(=O)NO)cn3)CC2)c2ccccc21 [Quisinostat] | 8.00 | 8.00 | 8.00 | 6.66 | 8.00 | 8.00 | 8.00 | 8.00 | –
CCc1c2c(nc3ccc(O)cc13)-c1cc3c(c(=O)n1C2)COC(=O)[C@]3(O)CC [SN-38] | – | – | – | – | – | – | – | – | cross-resistance of epirubicin-resistant cells [9]: cross-resistant; cross-resistance of epirubicin-resistant cells [10]: tolerated only small increases in SN-38 concentrations; cross-resistance of epirubicin-resistant cells [11]: tolerated only small increases in SN-38 concentrations; cross-resistance of epirubicin-resistant cells [12]: cross-resistant
O=C(CCCCCN1C(=O)c2cccc3cccc(c23)C1=O)NO [Scriptaid] | 5.91 | 6.14 | 5.89 | 6.03 | 5.78 | 5.87 | 5.42 | 5.90 | –
CC(/C=C/C(=O)NO)=C\[C@@H](C)C(=O)c1ccc(N(C)C)cc1 [Trichostatin A] | 5.64 | 6.30 | 6.82 | 5.91 | – | – | – | – | pIC50 ([1]; 72 h): 5.74; pIC50 ([6]; 72 h): 6.48; pIC50 ([7]; 72 h): 5.82
N.N.O=C([O-])C1(C(=O)[O-])CCC1.[Pt+2] [carboplatin] | – | – | – | – | – | – | – | – | cross-resistance of epirubicin-resistant cell lines [13]: None of the cell lines were cross-resistant
CC(=O)O[C@@]12CO[C@@H]1C[C@H](O)[C@@]1(C)C(=O)[C@H](O)C3=C(C)[C@@H](OC(=O)[C@H](O)[C@@H](NC(=O)OC(C)(C)C)c4ccccc4)C[C@@](O)([C@@H](OC(=O)c4ccccc4)[C@H]21)C3(C)C [docetaxel] | – | – | – | – | – | – | – | – | cross-resistance of epirubicin-resistant cells [9]: cross-resistant; cross-resistance of epirubicin-resistant cells [10]: not taxane-resistant; cross-resistance of epirubicin-resistant cells [11]: not taxane-resistant; cross-resistance of epirubicin-resistant cells [12]: not taxane-resistant
COc1cccc2c1C(=O)c1c(O)c3c(c(O)c1C2=O)C[C@@](O)(C(=O)CO)C[C@@H]3O[C@H]1C[C@H](N)[C@H](O)[C@H](C)O1 [doxorubicin] | – | – | – | – | – | – | – | – | cross-resistance of epirubicin-resistant cell lines [13]: resistant
CC(=O)O[C@H]1C(=O)[C@@]2(C)[C@H]([C@H](OC(=O)c3ccccc3)[C@]3(O)C[C@H](OC(=O)[C@H](O)[C@@H](NC(=O)c4ccccc4)c4ccccc4)C(C)=C1C3(C)C)[C@]1(OC(C)=O)CO[C@@H]1C[C@@H]2O [paclitaxel] | – | – | – | – | – | – | – | – | cross-resistance of epirubicin-resistant cells [9]: cross-resistant; cross-resistance of epirubicin-resistant cells [10]: not taxane-resistant; cross-resistance of epirubicin-resistant cells [11]: not taxane-resistant; cross-resistance of epirubicin-resistant cells [12]: not taxane-resistant
Oxamflatin | 5.92 | 6.60 | 6.54 | 6.16 | – | – | – | – | pIC50 ([1]; 72 h): 6.17; pIC50 ([4]; 72 h): 6.21; pIC50 ([6]; 72 h): 6.23; pIC50 ([7]; 72 h): 5.89; cytotoxicity for epirubicin-resistant cells compared to native cell lines ([8]; SKBR3, with epirubicin): more cytotoxic
